Broadly, the EC50 is the concentration giving half of the maximal effect.

This note sets out measurements from ChEMBL document CHEMBL4130450, “Mixed Aryl Phosphonate Prodrugs of a Butyrophilin Ligand” (ACS Med Chem Lett, 2017).

Active and inactive are the calls of the source. The calls are words filed in the database; no cut-off is given here.

Assay [1] can be described thus: Activation of BTN3A1 in human PBMC-derived Vgamma9Vdelta2 T cells assessed as induction of interleukin 2 stimulated cell proliferation by measuring increase in CD3 positive cells incubated for 3 days followed by 11 days incubation post compound wash out with subsequent stimulation with IL-2 every 3 days measured after 14 days by flow cytometry.
The target in assay [2] is T1, Butyrophilin subfamily 3 member A1 (Homo sapiens, UniProt O00481). Description: Activation of BTN3A1 in human PBMC-derived Vgamma9Vdelta2 T cells assessed as induction of interferon gamma production in response to K562 cells preincubated for 4 hrs […] followed by 11 days incubation post compound wash out with subsequent coculturing with Vgamma9Vdelta2 T cells for 20 hrs by ELISA. Type of assay: cell-based. Background: ELISA stands for enzyme-linked immunosorbent assay.
Target sequence in this assay (O00481 whole entry): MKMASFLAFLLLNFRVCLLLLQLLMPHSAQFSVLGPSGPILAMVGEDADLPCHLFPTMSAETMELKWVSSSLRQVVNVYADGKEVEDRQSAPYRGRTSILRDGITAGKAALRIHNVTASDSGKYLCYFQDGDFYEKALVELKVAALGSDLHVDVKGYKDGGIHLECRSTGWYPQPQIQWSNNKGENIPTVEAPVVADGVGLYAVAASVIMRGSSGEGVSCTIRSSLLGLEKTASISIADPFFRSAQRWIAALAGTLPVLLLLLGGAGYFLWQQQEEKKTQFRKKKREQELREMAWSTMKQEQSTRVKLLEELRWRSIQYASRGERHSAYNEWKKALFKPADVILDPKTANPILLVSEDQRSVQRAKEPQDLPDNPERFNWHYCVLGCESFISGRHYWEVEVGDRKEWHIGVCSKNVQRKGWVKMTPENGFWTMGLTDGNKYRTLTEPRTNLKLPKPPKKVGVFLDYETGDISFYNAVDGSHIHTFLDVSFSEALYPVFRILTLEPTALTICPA

The target of assay [3] is T1, Butyrophilin subfamily 3 member A1. Briefly: Binding affinity to BTN3A1 intracellular domain (unknown origin) at 250 uM by isothermal titration calorimetry. Background: ITC needs no label: the signal is the heat of the interaction.
Target sequence in this assay (O00481 30-513 limits assumed): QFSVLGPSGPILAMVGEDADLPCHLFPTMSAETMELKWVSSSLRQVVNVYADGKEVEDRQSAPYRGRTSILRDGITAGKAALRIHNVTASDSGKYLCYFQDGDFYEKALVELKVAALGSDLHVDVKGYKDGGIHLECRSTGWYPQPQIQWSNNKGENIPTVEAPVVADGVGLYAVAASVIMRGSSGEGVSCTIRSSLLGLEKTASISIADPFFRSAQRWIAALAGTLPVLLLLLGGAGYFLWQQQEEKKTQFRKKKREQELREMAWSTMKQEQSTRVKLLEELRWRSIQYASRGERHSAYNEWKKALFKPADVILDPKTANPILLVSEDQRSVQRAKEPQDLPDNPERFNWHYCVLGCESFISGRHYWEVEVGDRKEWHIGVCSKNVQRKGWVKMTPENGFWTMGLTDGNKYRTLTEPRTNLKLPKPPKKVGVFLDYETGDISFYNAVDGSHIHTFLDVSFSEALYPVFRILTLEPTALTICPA
Assay [4] has the same target. Description: Inhibition of HMBPP binding to BTN3A1 intracellular domain (unknown origin) at compound to HMBPP molar ratio of 100 by isothermal titration calorimetry.
Target sequence in this assay (O00481 30-513 limits assumed): as above

For `C/C(=C\CCP(=O)(O)O)CO`, in assay [1], the EC50 is 4000 nM.
Take `C/C(=C\CCP(=O)(COC(=O)C(C)(C)C)OCOC(=O)C(C)(C)C)CO` (stereo unspecified): the EC50 in assay [2] worked out at 24 nM.
As for `C/C(=C\CCP(=O)(COC(=O)C(C)(C)C)Oc1cccc2ccccc12)CO` (stereo unspecified), in assay [2], the EC50 was 9 nM.
As to `C/C(=C\CCP(=O)(O)Oc1ccccc1)CO`, the result in assay [3] was inactive.
Consider `C/C(=C\CCP(=O)(O)Oc1cccc2ccccc12)CO`, for which the outcome in assay [3] was inactive. Besides, the inhibition entry in assay [4] was “inactive”.
